Experimental data published in patent publication US4748185A, “4-hydroxycoumarin derivatives” (priority 1985, dated 1988).
Where two headings read alike, the source gives them in different places.

How the values were obtained:
[1] = test system: test animal (rat); experiment: Acute oral LD50; assay type: in vivo; details: polyethylene glycol 200/triethanolamine 9:1 w/w
Protocol: For some compounds, LD50 data has also been generated, as follows.
Compounds were dissolved in a mixture of polyethylene glycol 200 and triethanolamine (9:1 w/w) and serially diluted with the same solvent system to given concentrations of: 10.0, 4.64, 2.15, 1.00, 0.464, 0.215, 0.10, milligrammes per milliliter (mgml^-1).
As these concentrations represent a known number of milligrammes per milliliter, administration of any solution to the test animal at the rate of 1 milliliter per 1 kilogramme of bodyweight delivers a dose (in mgkg^-1) numerically equivalent to the concentration of that solution.
Thus appropriate doses were a range of four consecutive oral doses from the series of concentration sufficient to cause low group mortality at the lowest dose, and high group mortality at the highest dose. Acute oral LD50 's were then determined by reference to the tables in Horns' paper "Simplified LD50 (or ED50) Calculations", Biometrics, 12, 311-322.

[2] = test system: prothrombin time; experiment: Anticoagulant activity by measurement of the prothrombin time (3-day ED50, intraperitoneal, modified one-step method of Quick); assay type: in vivo, Wistar-strain male rats; details: Rattus norvegicus, S100, ip, 72 h, read-out: 3-day ED50
Protocol: Anticoagulant activity of the compounds of Examples 1 to 11 was determined by measurement of the prothrombin time, which is a measure of blood-clotting properties and is a reliable indicator of efficacy for an anticoagulant rodenticide. The procedure for measurement of prothrombin time is based on Quick et al, Am. J. Med. Sci., 190, 501 to 511, 1935.
Prothrombin times were determined according to the following specific procedures. Test compounds were dissolved in a mixture of polyethylene glycol 200 (i.e. polyethylene glycol of average molar mass 200) and triethanolamine (9:1 w/w) and serially diluted with the same solvent system to give concentrations of; 5.0, 2.5, 1.0, 0.9, 0.8, 0.7, 0.6, 0.5, 0.45, 0.40, 0.35, 0.30, 0.25, 0.2 and 0.1 milligrammes per milliliter (mgml^-1).
As these concentrations represent a known number of milligrammes per milliliter administration of any solution to the test animal at the rate of 1 milliliter per 1 kilogramme of bodyweight (eg. a 250 g rat is administered 0.25 ml) delivers a dose (in mg kg^-1) numerically equivalent to the concentration of that solution. In this instance the terms concentration and dose are synonymous.
Thus, appropriate doses were a range of at least three consecutive doses from the above series of concentrations which it was estimated would induce a range of prothrombin time elevations between 0 to 100% such that a dose-response curve could be constructed for that analogue.
The doses were injected into test animals (200 to 250 g Wistar-strain male rats) by the interperitoneal route. Three days after injection, blood was withdrawn by cardiac puncture whilst the animals were held under "Halothane" anaesthesia.
Three rats were used in each test of a particular compound and three prothrombin time determinations were carried out on each blood sample. Prothrombin times were determined using the modified one-step method of Quick. The percentage extension time of each prothrombin time was determined by assigning 0% extension time to an arbitrary prothrombin resting time of 12 seconds, and 100% extension time to a prothrombin time elevated to an arbitrary 212 seconds. Results were plotted on log-probability graph paper, the best-line fitted, and the prothrombin time ED50 read from the graph.

[3] = prothrombin time ED50, single intraperitoneal injection, male Wistar rats, blood taken three days after injection, 0% = 12 s, 100% = 212 s

Structure (SMILES)	LD50 [1] [mg/kg]	ED50 [2] [mg/kg]	ED50 [2, 3] [mg/kg]
O=c1oc2ccccc2c(O)c1C1CC(c2ccc(-c3ccccc3)cc2)Cc2ccccc21 (stereo not drawn) [Difenacoum, reference compound]	1.80	0.56	
O=c1oc2ccccc2c(O)c1C1CC(c2ccc(-c3ccc(OCc4ccc(C(F)(F)F)cc4)cc3)cc2)Cc2ccccc21 (stereo not drawn) [Example 1, 3-{3-[4'-(4-trifluoromethylbenzyloxy)biphenyl-4-yl]-1,2,3,4-tetrahydro-1-naphthyl}-4-hydroxycoumarin]	0.32 to 0.4		0.4
N#Cc1ccc(COc2ccc(-c3ccc(C4Cc5ccccc5C(c5c(O)c6ccccc6oc5=O)C4)cc3)cc2)cc1 (stereo not drawn) [Example 2, 3-{3-[4'-(4-cyanobenzyloxy)biphenyl-4-yl]-1,2,3,4-tetrahydro-1-naphthyl}-4-hydroxycoumarin]			1.6
O=c1oc2ccccc2c(O)c1C1CC(c2ccc(-c3ccc(OCc4ccc(Br)cc4)cc3)cc2)Cc2ccccc21 (stereo not drawn) [Example 3, 3-{3-[4'-(4-bromobenzyloxy)biphenyl-4-yl]-1,2,3,4-tetrahydro-1-naphthyl}-4-hydroxycoumarin]	0.4 to 1.0		0.74
O=c1oc2ccccc2c(O)c1C1CC(c2ccc(-c3ccc(-c4ccccc4)cc3)cc2)Cc2ccccc21 (stereo not drawn) [Example 4, 3-[3-(4'-terphenyl-4-yl)-1,2,3,4-tetrahydro-1-naphthyl]-4-hydroxycoumarin]	1.0		0.55
O=c1oc2ccccc2c(O)c1C1CC(c2ccc(OCc3ccc(-c4ccccc4)cc3)cc2)Cc2ccccc21 (stereo not drawn) [Example 5, 3-{3-[4-(4-phenylbenzyloxy)phenyl]-1,2,3,4-tetrahydro-1-naphthyl}-4-hydroxycoumarin]	0.4 to 1.0		0.4
O=c1oc2ccccc2c(O)c1C1CC(c2ccc(OCc3ccc(-c4ccc(Br)cc4)cc3)cc2)Cc2ccccc21 (stereo not drawn) [Example 6, 3-{3-[4-(4'-bromobiphenyl-4-ylmethoxy)phenyl]-1,2,3,4-tetrahydro-1-naphthyl}-4-hydroxycoumarin]			0.72
O=c1oc2ccccc2c(O)c1C1CC(c2ccc(Oc3ccc(-c4ccc(Cl)cc4)cc3)cc2)Cc2ccccc21 (stereo not drawn) [Example 7, 3-{3-[4-(4'-chlorobiphenyl-4-yloxy)phenyl]-1,2,3,4-tetrahydro-1-naphthyl}-4-hydroxycoumarin]			0.36
O=c1oc2ccccc2c(O)c1C1CC(c2ccc(Cc3ccc(-c4ccc(Br)cc4)cc3)cc2)Cc2ccccc21 (stereo not drawn) [Example 8, 3-{3-[4-(4'-bromobiphenyl-4-ylmethyl)phenyl]-1,2,3,4-tetrahydro-1-naphthyl}-4-hydroxycoumarin]			0.37
O=c1oc2ccccc2c(O)c1C1CC(c2ccc(OCc3ccc(-c4ccc(-c5ccccc5)cc4)cc3)cc2)Cc2ccccc21 (stereo not drawn) [Example 9, 3-{3-[4-(4-biphenyl-4-ylbenzyloxy)phenyl]-1,2,3,4-tetrahydro-1-naphthyl}-4-hydroxycoumarin]			0.49
O=c1oc2ccccc2c(O)c1C1CC(c2ccc(Cc3ccc(-c4ccccc4)cc3)cc2)Cc2ccccc21 (stereo not drawn) [Example 10, 3-{3-[4-(biphenyl-4-ylmethyl)phenyl]-1,2,3,4-tetrahydro-1-naphthyl}-4-hydroxycoumarin]			0.52
O=c1oc2ccccc2c(O)c1C1CC(c2ccc(Oc3ccc(-c4ccccc4)cc3)cc2)Cc2ccccc21 (stereo not drawn) [Example 11, 3-{3-[4-(biphenyl-4-yloxy)phenyl]-1,2,3,4-tetrahydro-1-naphthyl}-4-hydroxycoumarin]			0.55
CC(=O)CC(c1ccccc1)c1c(O)c2ccccc2oc1=O (stereo not drawn) [Warfarin, 3-(α-acetonylbenzyl)-4-hydroxycoumarin, reference compound]			5.2
